Data from ChEMBL document CHEMBL1201862, “PubChem BioAssay data set” (2004).
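Briefly, cells in 96-well plates were exposed to five compound concentrations for 48 h, and endpoints were estimated by linear interpolation. GI50 is the concentration that inhibits growth by half.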 Active and inactive are the calls of the source. No stated cut-off is given here; in the data, active = GI50 up to about 1.1 µM and inactive = higher.

Columns and labels:
Assay in all cases: growth of human tumour cells (NCI), 48 h
A498 = test system: A498
A549 = test system: A549
COLO 205 = test system: COLO 205
HCT-116 = test system: HCT-116
HCT-15 = test system: HCT-15
HL-60 = test system: HL-60
HT-29 = test system: HT-29
KM12 = test system: KM12
LOX IMVI = test system: LOX IMVI
M19-MEL = test system: M19-MEL
OVCAR-5 = test system: OVCAR-5
RPMI-8226 = test system: RPMI-8226
SF-268 = test system: SF-268
SK-MEL-28 = test system: SK-MEL-28
TK-10 = test system: TK-10
U-251 = test system: U-251
UACC-257 = test system: UACC-257
SN12C = test system: SN12C

| SMILES | GI50 (A498) | GI50 (A549) | GI50 (COLO 205) | GI50 (HCT-116) | GI50 (HCT-15) | GI50 (HL-60) | GI50 (HT-29) | GI50 (KM12) | GI50 (LOX IMVI) | GI50 (M19-MEL) | GI50 (OVCAR-5) | GI50 (RPMI-8226) | GI50 (SF-268) | GI50 (SK-MEL-28) | GI50 (TK-10) | GI50 (U-251) | GI50 (UACC-257) | GI50 (SN12C) |
| --- | --- | --- | --- | --- | --- | --- | --- | --- | --- | --- | --- | --- | --- | --- | --- | --- | --- | --- |
| CC1CC(=O)c2c(ccc3c2C(=O)c2cccc(O)c2C3=O)C1 (configuration not stated) | 14 µM (inactive) | 7.16 µM (inactive) | 5.75 µM (inactive) | 5.08 µM (inactive) | 9.14 µM | 2.77 µM (inactive) | 3.74 µM (inactive) | 12.7 µM (inactive) | 4.47 µM (inactive) | 1.41 µM (inactive) | 20.6 µM (inactive) | 3.34 µM (inactive) | 10.4 µM (inactive) | 13.1 µM (inactive) | > 10 µM (inactive) | 11.4 µM (inactive) | 5.89 µM (inactive) |  |
| CCCC(O)c1ccc2[nH]c3c(C)cc([N+](=O)[O-])c(C)c3c2c1 (configuration not stated) |  | 39.3 µM (inactive) | 93.1 µM (inactive) | > 100 µM (inactive) | > 100 µM | > 100 µM (inactive) | 68.1 µM (inactive) | > 100 µM (inactive) | > 100 µM (inactive) | > 100 µM (inactive) | > 100 µM (inactive) | 62.1 µM (inactive) | > 100 µM (inactive) | > 100 µM (inactive) | 23 µM (inactive) |  | > 100 µM (inactive) | > 100 µM (inactive) |
| N#Cc1cccc(C2C(=O)c3ccc(C(=O)c4ccc5c(c4)C(=O)N(c4ccc(Oc6ccc(N7C(=O)c8ccc(C(=O)c9ccc%10c(c9)C(=O)N(c9cccc(C#N)c9)C%10=O)cc8C7=O)cc6)cc4)C5=O)cc3C2=O)c1 (configuration not stated) |  | > 100 µM (inactive) | > 100 µM (inactive) | > 100 µM (inactive) | > 100 µM | > 100 µM (inactive) | > 100 µM (inactive) | > 100 µM (inactive) |  | > 100 µM (inactive) | > 100 µM (inactive) | > 100 µM (inactive) | > 100 µM (inactive) | > 100 µM (inactive) | 40.2 µM (inactive) | > 100 µM (inactive) | > 100 µM (inactive) | > 100 µM (inactive) |
| C[Si](C)(C)/C=C/CCC(C=O)(CCCl)c1ccccc1 (configuration not stated) | 64.1 µM (inactive) | 23.4 µM (inactive) | 29.2 µM (inactive) | 14.1 µM (inactive) | 19.5 µM | 6.98 µM (inactive) | 14.6 µM (inactive) | 26.7 µM (inactive) | 19.1 µM (inactive) | 27.7 µM (inactive) | 25.5 µM (inactive) |  | 31.7 µM (inactive) | 32.9 µM (inactive) | 56.1 µM (inactive) | 15.7 µM (inactive) | 26.2 µM (inactive) | 31.4 µM (inactive) |
| Nn1c(-c2ccccc2)nc2ccc(Br)cc2c1=O | 70.5 µM (inactive) | > 100 µM (inactive) | 32.1 µM (inactive) | 35.3 µM (inactive) | 40.8 µM | 15.6 µM (inactive) | 61 µM (inactive) | 86.1 µM (inactive) |  | 89.5 µM (inactive) | > 100 µM (inactive) | 30.9 µM (inactive) | 30.7 µM (inactive) | > 100 µM (inactive) | > 100 µM (inactive) | 41.4 µM (inactive) | > 100 µM (inactive) | 42.7 µM (inactive) |
| NC(=O)C(=O)C1CCC2=C(Sc3ccccc3N2)C1=O (configuration not stated) | > 100 µM (inactive) | > 100 µM (inactive) | > 100 µM (inactive) | > 100 µM (inactive) | > 100 µM | > 100 µM (inactive) |  | > 100 µM (inactive) | > 100 µM (inactive) | > 100 µM (inactive) | > 100 µM (inactive) | > 100 µM (inactive) | > 100 µM (inactive) | > 100 µM (inactive) | > 100 µM (inactive) | > 100 µM (inactive) | > 100 µM (inactive) |  |
| COC(=O)C1(C(=O)OC)CC(=O)c2cc3c(cc2-c2c(cc(OC)c(OC)c2OC)C1)OCO3 |  | > 211 µM (inactive) | 183 µM (inactive) | 111 µM (inactive) | 204 µM | 67.1 µM (inactive) | > 211 µM (inactive) | 71.6 µM (inactive) | > 211 µM (inactive) | > 211 µM (inactive) | 88.3 µM (inactive) |  | > 211 µM (inactive) | > 211 µM (inactive) | > 211 µM (inactive) | > 211 µM (inactive) | 139 µM (inactive) | > 211 µM (inactive) |
| Cc1ccc(NC(=O)/C(=N\NC(N)=S)C(C#N)c2ccccc2C)cc1C (configuration not stated) | > 100 µM (inactive) | > 100 µM (inactive) | > 100 µM (inactive) | > 100 µM (inactive) | > 100 µM | > 100 µM (inactive) | > 100 µM (inactive) | > 100 µM (inactive) |  | > 100 µM (inactive) | > 100 µM (inactive) | > 100 µM (inactive) | > 100 µM (inactive) | > 100 µM (inactive) | > 100 µM (inactive) | > 100 µM (inactive) | > 100 µM (inactive) | > 100 µM (inactive) |
